The text below walks through data of patent US12514816B2, “Synergist therapy for enhanced drug delivery: magnetic field facilitated nanoparticle microporation” (Kansas State University Research Foundation, priority 2019, dated 2026).

In data set [1] the test system is U-937 human cancer cell line.
Method: No Magnetic Pulses: Effects of Cell Suspension Transfer, and Presence or Absence of Doxorubicin and Dex-FeNP upon Cell Death in U-937—The effects of cell suspension transfer to the 5 mm tube was investigated. U-937 cells (40,000 cells/well) were cultured in the presence or absence of Dex-FeNP (final concentration of 0.0025 mg/mL), and in the presence or absence of doxorubicin (at the determined IC50 in U-937), and then transferred to the 5-mm NMR tube. Samples were left at room temperature for the same time duration as samples treated to magnetic pulses. Samples were returned to cell culture plates and then incubated for 2 hours, and finally evaluated for cell death.
20 Magnetic Pulses: Effects of Presence or Absence of Doxorubicin and Dex-FeNP upon Cellular Death in U937—To explore the effects of microporation upon cell death through the application of magnetic pulses upon Dex-FeNP, the same experimental protocol as outlined above for no pulses was performed, but with the application of 20 magnetic pulses to the sample to induce increased drug uptake and enhanced accumulation. The total time required for this single set of 20 pulses is 5 microseconds. During the 5 microseconds, the field is applied constantly, but after this time no further pulses are applied.
50 Magnetic Pulses: Maximizing Cell Death with Magnetic Pulses—To maximize the combinational cell death in this strategy, the number of magnetic pulses was increased.
(§4) A suspension of U-937 or REH in RPMI-1640 medium (cell density of 40,000 cells/well) was added to each well of a 48-well plate, final volume of 0.8 mL, to which 0.2 mL of a pre-prepared solution of Dex-FeNP was added to achieve a final concentration of 0.025 mg/mL and allowed to incubate. For experiments in which no Dex-FeNP was employed, 0.2 mL of media was added in place of the nanoparticle solution. After 24 h, 2 μL of a 0.1 mM doxorubicin solution in DMSO was added to each well to achieve a 0.2 μM concentration. For experiments in which doxorubicin was not used, 0.2 μL of DMSO was added. The contents of each well were then transferred to a sterilized 5-mm NMR-tube. Samples are then placed within a magnetic field generating system and subjected to magnetic pulses. Sample not exposed to the magnetic fields are left within the NMR-tubes for the same time duration as samples treated with the magnet field. Each sample in their respective NMR-tubes were inverted to ensure homogeneity after which 0.7 mL was transferred back to their respective wells on the 48-well plate. NOTE: Only 0.7 mL was transferred to ensure constant volume within each well post-magnetic field application.
Data set [2] has as its system REH cell line. Description: Drug accumulation within REH cells quantified via HPLC. It counts as cell-based, human. Here is the method: (§1) Additional cancer cell line: Following the same protocol as outlined above, doxorubicin was evaluated in the REH cancerous cell line. […] As previously observed, when doxorubicin was introduced in the absence of Dex-FeNP cell death increased to ˜40%. […] A trend also observed within the U-937 cell line with doxorubicin.
(§2) After following the general procedures above, samples were incubated for 1.5 h. The cells were then transferred to an Eppendorf tube and centrifuged at 7,500 g for 5 mins, after which the suspension media was removed. The resulting cell pellet was washed with the addition of 0.7 mL of PBS and removed, twice. The cells were lysed with the addition of 0.35 mL of a lysis solution (EDTA, SDS, Tris HCl at pH 8.00), centrifuged at 20,000 gravity for 15 min to pellet large cellular debris, and the supernatant was removed and analyzed via HPLC for doxorubicin quantification.
(§3) Analysis was performed using a Shimadzu HPLC system with C18 analytical column maintained at 32° C. Mobile phases consisted of water-formic acid (999:1, v/v, phase A) and acetonitrile-formic acid (999:1, v/v, phase B) filtered through a membrane filter (0.2 μm) prior to use. A gradient program starting at A:B (85:15, v/v) and ending at A:B (50:50, v/v) was applied over 20 min at a flow rate of 0.35 mL/min. (A:B-85:15-2 min, A:B 50:50-3-8 min, A:B 85:15-9-20 min). The column effluent was monitored via 590 nm.

Data set [3] deals with REH human cancer cell line (acute lymphocytic leukemia). Description: Cell death in REH with/without Dex-FeNP, drug and magnetic field pulses (Alamar Blue). The data set is classed as cell-based. Here is the method: as §1
A general note: The colour change of resazurin is a common sign of viable cells or microbes.

Data set [4] has as its system U-937 (histiocytic lymphoma) human cancer cell line. Description: cells. The settings on record: U-937, 48 h.
From the text: (§5) To evaluate the proposed magnetic field facilitated nanoparticle induced microporation, U-937 (lymphoma cancerous suspension cell line) was selected. To investigate the possible toxicity effects of Dex-FeNP within U-937 cells, doxorubicin was used as an evaluation tool. Through the comparison of the IC50 of doxorubicin in U-937 cells relative to the IC50 of doxorubicin in the presence of various concentration of the Dex-FeNP allows for direct comparison of the effects that the Dex-FeNP have upon U-937 cells. In addition to the concentration of the Dex-FeNP, the effects of cell seeding density was also investigated in 384 and 48-well plates (4,000 and 40,000 cells/well, respectively).
(§6) To either 48 or 96 well plates was added doxorubicin (100 to 0.1 μM) in DMSO, Dex-FeNP (0.25 to 0 mg/mL), and U-937 or REH cells (4,000 cells/well and 40,000 cells/well, respectively) to final volumes of 50 and 700 μL. Samples were incubated for 48 h, cell viability was assessed by adding 5 and 70 μM of Alamar blue to each well, incubated for an additional 2 h, and fluorescence read. IC50 values were determined from three or more independent experiments using Prism by GraphPad.
The test system of data set [5] is U-937 cells. The settings on record: nanoparticles plus magnetic field pulses vs control.
Method: as §4
(§7) After following the general procedure above, samples were incubated for 48 h and then 70 μL of Alamar blue was added to each well and left to incubate for an additional 2 h. Cells were assessed for viability via standard methods for Alamar blue quantification.
Data set [6] has as its system U-937 (histiocytic lymphoma) human cancer cell line.
From the text: as §5, §6
Data set [7] relates to U-937 cells. Description: cells. The settings on record: Homo sapiens, U-937, U-937.
Method: as §4, §7
In data set [8] the test system is U-937 cells. The data set is described as follows: Drug uptake within U-937 cells quantified via HPLC. The data set is classed as cell-based, human. The settings on record: for increase of doxorubicin within cells (uptake), magnetic field pulses vs untreated: 20 magnetic field pulses, HPLC 1.5-2 h after administration. Here is the method: Employing the same experimental conditions used for cellular death analysis, quantification of doxorubicin was achieved via HPLC. The protocol of this experiment differed from the cellular death analysis in that quantification of doxorubicin was performed 2 hours after administration, rather than 48 hours. Rationale for this is based upon the rapid translocation of doxorubicin into the nucleus where it elicits its therapeutic action.
as §2, §3
Employing the same procedure, cells were incubated with the magnetic nanoparticles, treated with dox in the absence and presence of the magnetic field and left to incubate. After 1.5 h, the cells were pelleted, washed twice with sterile PBS, lysed, centrifuged to removal large cellular debris, and then analyzed via HPLC.

Values joined by “and” are separate entries in the source; they are usually repeats but may differ in a detail not shown here. Equal entries are not always repeated. Where two headings read alike, the source gives them in different places.

Take `COc1cccc2c1C(=O)c1c(O)c3c(c(O)c1C2=O)C[C@@](O)(C(=O)CO)C[C@@H]3O[C@H]1C[C@H](N)[C@H](O)[C@H](C)O1` [Doxorubicin]: the cell death result in data set [1] (U-937, doxorubicin at its IC50, absence of Dex-FeNP and magnetic pulses) was “over 50%”; in data set [1] (U-937, doxorubicin plus Dex-FeNP, no magnetic field) it was “remained similar”; in data set [1] (U-937, doxorubicin plus Dex-FeNP, no magnetic field, listed as dox), approximately 50%; in data set [3] (doxorubicin in the absence of Dex-FeNP, 20 magnetic field pulses), approximately 40%. Besides, the “increase in cell death” value was approximately 8% in data set [1] (U-937, pre-treated with magnetic nanoparticles, dox, 20 pulses of the magnetic field); “an increase in cell death” in data set [1] (U-937, pre-treated with magnetic nanoparticles, dox, 50 pulses); 12% in data set [1] (U-937, pre-treated with magnetic nanoparticles, dox, 50 pulses, listed as dox); approximately 8% in data set [3] (Dex-FeNP and doxorubicin in the presence of the magnetic field (20 pulses)). For the same molecule, in data set [1] (all three elements present: doxorubicin, Dex-FeNP, magnetic pulses (number of pulses not stated)), the “increase in U-937 cell death” value is 9.1%. In data set [1] (human, 48 h, 0.2 μM), this molecule registered an increase in cytotoxicity of approximately 50%. In data set [2] (Dex-FeNP and doxorubicin, 20 magnetic field pulses, 2 h period), the “increase in accumulation of doxorubicin” value is recorded as 38.7%. Moreover, the doxorubicin accumulation entry in data set [2] (absence of Dex-FeN and magnetic field) is on record as “no increase in doxorubicin accumulation”. The IC50 in data set [4] (read-out: Doxorubicin IC50 (μM) in U-937, 48 h, 4,000 cells/well, 384 plate, 50 μL volume, Dextrin Nano-Particle 0 mg/mL) amounted to 0.023 ± 0.012 µM; in data set [4] (read-out: Doxorubicin IC50 (μM) in U-937, 48 h, 4,000 cells/well, 384 plate, 50 μL volume, Dextrin Nano-Particle 0.000001 mg/mL), 0.022 ± 0.019 µM; in data set [4] (read-out: Doxorubicin IC50 (μM) in U-937, 48 h, 4,000 cells/well, 384 plate, 50 μL volume, Dextrin Nano-Particle 0.0001 mg/mL), 0.018 ± 0.011 µM; in data set [4] (read-out: Doxorubicin IC50 (μM) in U-937, 48 h, 4,000 cells/well, 384 plate, 50 μL volume, Dextrin Nano-Particle 0.001 mg/mL), 0.018 ± 0.014 µM; in data set [4] (read-out: Doxorubicin IC50 (μM) in U-937, 48 h, 4,000 cells/well, 384 plate, 50 μL volume, Dextrin Nano-Particle 0.00125 mg/mL), 0.022 ± 0.008 µM; in data set [4] (read-out: Doxorubicin IC50 (μM) in U-937, 48 h, 4,000 cells/well, 384 plate, 50 μL volume, Dextrin Nano-Particle 0.001666 mg/mL), 0.018 ± 0.012 µM. Further, the IC50 was determined as 0.018 ± 0.009 µM in data set [4] (read-out: Doxorubicin IC50 (μM) in U-937, 48 h, 4,000 cells/well, 384 plate, 50 μL volume, Dextrin Nano-Particle 0.0025 mg/mL); 3.44 ± 0.56 µM in data set [4] (read-out: Doxorubicin IC50 (μM) in U-937, 48 h, 4,000 cells/well, 384 plate, 50 μL volume, Dextrin Nano-Particle 0.01 mg/mL); 4.19 ± 0.95 µM in data set [4] (read-out: Doxorubicin IC50 (μM) in U-937, 48 h, 4,000 cells/well, 384 plate, 50 μL volume, Dextrin Nano-Particle 0.25 mg/mL); 0.201 ± 0.032 µM in data set [4] (read-out: Doxorubicin IC50 (μM) in U-937, 48 h, 40,000 cells/well, 48 plate, 700 μL volume, Dextrin Nano-Particle 0 mg/mL); 0.2 ± 0.079 µM in data set [4] (read-out: Doxorubicin IC50 (μM) in U-937, 48 h, 40,000 cells/well, 48 plate, 700 μL volume, Dextrin Nano-Particle 0.000001 mg/mL); 0.17 ± 0.024 µM in data set [4] (read-out: Doxorubicin IC50 (μM) in U-937, 48 h, 40,000 cells/well, 48 plate, 700 μL volume, Dextrin Nano-Particle 0.0001 mg/mL). Besides, the IC50 in data set [4] (read-out: Doxorubicin IC50 (μM) in U-937, 48 h, 40,000 cells/well, 48 plate, 700 μL volume, Dextrin Nano-Particle 0.001 mg/mL) is 0.19 ± 0.035 µM; in data set [4] (read-out: Doxorubicin IC50 (μM) in U-937, 48 h, 40,000 cells/well, 48 plate, 700 μL volume, Dextrin Nano-Particle 0.00125 mg/mL), 0.32 ± 0.022 µM; in data set [4] (read-out: Doxorubicin IC50 (μM) in U-937, 48 h, 40,000 cells/well, 48 plate, 700 μL volume, Dextrin Nano-Particle 0.001666 mg/mL), 0.2 ± 0.027 µM; in data set [4] (read-out: Doxorubicin IC50 (μM) in U-937, 48 h, 40,000 cells/well, 48 plate, 700 μL volume, Dextrin Nano-Particle 0.0025 mg/mL), 0.2 ± 0.019 µM; in data set [4] (read-out: Doxorubicin IC50 (μM) in U-937, 48 h, 40,000 cells/well, 48 plate, 700 μL volume, Dextrin Nano-Particle 0.01 mg/mL), 4.83 ± 0.028 µM; in data set [4] (read-out: Doxorubicin IC50 (μM) in U-937, 48 h, 40,000 cells/well, 48 plate, 700 μL volume, Dextrin Nano-Particle 0.25 mg/mL) it was 6.25 ± 0.208 µM. Moreover, the IC50 in data set [7] (Dex-FeNP (0.0025 mg/mL) alone, no magnetic field pulses) worked out at 273 nM; in data set [7] (Dex-FeNP (0.0025 mg/mL) plus 20 magnetic field pulses (combinational strategy)), 165 nM. In addition, in data set [5], the “enhancement of the effects of the anti-cancer agent by the methodology” value was “up to 65%”. The “IC50 of doxorubicin relative to the doxorubicin control alone” value was “returned to normal levels within the margins of standard deviation” in data set [6] (Dex-FeNP 0.0025 mg/mL (dilution 1/400), both cell density experiments); “increased in value significantly” in data set [6] (higher concentrations of Dex-FeNP (0.25 and 0.01 mg/mL)). Further, the “doxorubicin uptake relative to cells with neither Dex-FeNP nor pulses” value in data set [8] (U-937, Dex-FeNP, magnet pulses not applied) is “no increase in doxorubicin uptake”. Besides, the “increase of doxorubicin within cells (uptake), magnetic field pulses vs untreated” value in data set [8] (U-937 with Dex-FeNP) is 75.2%; in data set [8] (U-937 with Dex-FeNP, listed as doxorubicin), 75.2% and 75%. For the same molecule, the “doxorubicin accumulation difference between the two systems at later time points” value in data set [8] (U-937 with Dex-FeNP, with vs without pulses, later than 2 h) is “lower than 75%”.

`S=c1nc[nH]c2nc[nH]c12` [6TP, 6-thiopurine]: in data set [1] (U-937 (printed U-397), Dex-FeNP and 6TP in the presence of magnetic field (20 pulses), 48 h), the “increase in cell death” value is recorded as 3%. In addition, in data set [8] (U-937, Dex-FeNP plus 20 MF pulses, 2 h period), the “increase in accumulation of 6TP” value was 21.4%.
